For the experiment, the target named is T1, human IBAT (Homo sapiens, UniProt Q12908).
T1 construct: Bases 599 to 1645 correspond to the complete coding region of human IBAT; expressed in transfected cells
T1 sequence (Q12908 1-348): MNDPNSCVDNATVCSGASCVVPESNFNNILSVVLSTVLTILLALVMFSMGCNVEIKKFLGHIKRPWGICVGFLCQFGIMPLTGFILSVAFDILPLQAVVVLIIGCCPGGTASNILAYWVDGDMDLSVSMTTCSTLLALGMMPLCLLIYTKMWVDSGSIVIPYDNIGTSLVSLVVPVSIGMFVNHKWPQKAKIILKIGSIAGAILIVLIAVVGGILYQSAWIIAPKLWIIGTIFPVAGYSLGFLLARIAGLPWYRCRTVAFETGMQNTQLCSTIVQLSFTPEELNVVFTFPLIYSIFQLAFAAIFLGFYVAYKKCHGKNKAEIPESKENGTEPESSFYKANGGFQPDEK
The experiment in a line: In vitro IBAT inhibition assay: IBAT-dependent uptake of [3H]-taurocholic acid into CHO-hIBAT cells. Type of experiment: cell-based. The note with it: 10 μM taurocholic acid, 60 min at room temperature, read-out: IC-50 (human IBAT). The source says: Preparation and Procedure for the In Vitro IBAT Inhibition Assay:
1. Cloning of an Expression Vector for Human IBAT
The cDNA (complementary deoxyribonucleic acid) of human IBAT was cloned by standard methods of molecular biology as described for example in Molecular Cloning: A Laboratory Manual by Joseph Sambrook and David Russell, and introduced into the pcDNA1 vector from Invitrogen. […] Bases 599 to 1645 correspond to the complete coding region of human IBAT.
2. Preparation of a Recombinant Cell Line with Constitutive Expression of Human IBAT
The expression vector for human IBAT was introduced by stable transfection into CHO (chinese hamster ovary) cells. To select single cell clones, 400 μg/ml Geneticin was added to the cell culture medium (Ham's F12 medium supplemented with 10% fetal calf serum, 100 units/ml penicillin, 100 units/ml streptomycin). The functionality of the single cell clones resulting from the selection was assayed via their uptake activity for radiolabeled taurocholic acid ([^3H]-TCA). The cell clone with the highest uptake activity for [^3H]-TCA, referred to hereinafter as CHO-hIBAT, was selected for the further assays and further cultured in the presence of 400 μg/ml Geneticin.
3. Measurement of The Inhibitory Effect of The Compound of The Invention on The IBAT-Dependent Uptake of Taurocholic Acid into Cells
CHO-hIBAT cells were seeded in a concentration of 40 000 cells per well in poly-D-lysine-coated 96-well plates in cell culture medium and cultured for 24 h. The cells were then washed once with sodium-free transport assay buffer (140 mM choline chloride, 2 mM potassium chloride, 1 mM magnesium chloride, 1 mM calcium chloride, 10 mM HEPES/Tris, pH 7.5) and subsequently incubated either with sodium-free transport assay buffer as negative control or with sodium-containing transport assay buffer (140 mM sodium chloride, 2 mM potassium chloride, 1 mM magnesium chloride, 1 mM calcium chloride, 10 mM HEPES/Tris, pH 7.5) as positive control at room temperature for 30 min. At the same time, the assay wells were also incubated in the presence of the compound to be investigated in varying concentration in sodium-containing transport assay buffer at room temperature for 30 min. The test substances were appropriately diluted in transport assay buffer (40 μl/well) starting from a 10 mM stock solution in dimethyl sulfoxide. The assay was then started by adding 10 μl/well of a mixture of radiolabeled taurocholic acid ([^3H]-TCA) and unlabeled taurocholic acid. The final concentration of taurocholic acid in the assay was 10 μM. After an incubation time of 60 min at room temperature, the reaction was stopped by adding 100 μl/well of sodium-free transport assay buffer (4° C.), and each well was washed three times with sodium-free transport assay buffer. Finally, 100 μl of scintillation fluid were added to each well, and the radioactivity taken up into the cells was determined in a MicroBeta Scintillation Microplate Reader from Wallac.
The half-maximum inhibitory effect of the test compound (IC50 value, inhibitory concentration 50) was determined in the following way: • 1. Determination of the value for 0% inhibition. This is the measurement in the absence of substance, measured in sodium-containing transport assay buffer. • 2. Determination of the value for 100% inhibition. This is the measurement in the absence of substance, measured in sodium-free transport assay buffer. • 3. Calculation of the percentage inhibitions of those measurements carried out in the presence of various concentrations of the compound to be investigated. It was then possible to find therefrom the concentration of the compound which reduces the uptake of taurocholic acid by 50% (IC50 value).
For the compound `CCCC[C@]1(CC)CS(=O)(=O)c2ccc(N(C)C)cc2[C@@H](c2cccc(NC(=O)N[C@@H]3O[C@H](CO)[C@@H](O)[C@H](OCc4ccccc4)[C@H]3O)c2)[C@H]1O` [Example 1], the IC50 was 4.4 nM. Turning to `CCCCC1(CCCC)CS(=O)(=O)c2ccc(N(C)C)cc2[C@@H](c2cccc(NC(=O)N[C@@H]3O[C@H](CO)[C@@H](O)[C@H](OCc4ccccc4)[C@H]3O)c2)[C@H]1O` [Example 2], the IC50 amounted to 6.9 nM. Under `CCCC[C@]1(CC)CS(=O)(=O)c2ccc(N(C)C)cc2[C@@H](c2cccc(NC(=O)N[C@@H]3O[C@H](COCc4ccccc4)[C@@H](O)[C@H](OCc4ccccc4)[C@H]3O)c2)[C@H]1O` [Example 3] stands 3.5 nM. Turning to `CCCC[C@]1(CC)CS(=O)(=O)c2ccc(N(C)C)cc2[C@@H](c2cccc(NC(=O)N[C@@H]3O[C@H](COS(=O)(=O)O)[C@@H](O)[C@H](OCc4ccccc4)[C@H]3O)c2)[C@H]1O` [Example 4], the IC50 came out at 2.4 nM. Under `CCCC[C@]1(CC)CS(=O)(=O)c2ccc(N(C)C)cc2[C@@H](c2cccc(NC(=O)N[C@@H]3O[C@H](COS(=O)(=O)O)[C@@H](OS(=O)(=O)O)[C@H](OCc4ccccc4)[C@H]3O)c2)[C@H]1O` [Example 5] stands 2 nM; under `CCCCC1(CCCC)CS(=O)(=O)c2ccc(N(C)C)cc2[C@@H](c2cccc(NC(=O)N[C@@H]3O[C@H](COS(=O)(=O)O)[C@@H](O)[C@H](OCc4ccccc4)[C@H]3O)c2)[C@H]1O` [Example 6], 10.7 nM.

Source of the values: US7956085B2, “1,4-benzothiepine 1,1-dioxide derivatives substituted by benzyl radicals, method for their preparation, pharmaceuticals comprising these compounds, and the use thereof” (Sanofi-Aventis Deutschland GmbH, priority 2006, dated 2011).
